The text below walks through data of patent US20240391959A1, “BICYCLIC PEPTIDE LIGANDS […] FOR TRANSFERRIN RECEPTOR 1 (TfR1)” (BicycleTx Limited, priority 2020, published 2024).

Molecules are shown by their SMILES. Values joined by “and” are separate entries in the source; they are usually repeats but may differ in a detail not shown here. Equal entries are not always repeated.

What all share (assay type): binding
One experiment has as its target cynomolgus TfR1.
For experiment [1], the target named is T1, human TfR1 (Homo sapiens, UniProt P02786). The experiment is described as follows: biochemical. To be noted: Human TfR1 Kd (nM). More on the design: His6-tagged TfR1 (a.a. 89-760) (ACRO Biosystems, CD1-H5243 and TFR-C524a); His6; purchased R&D Systems or Acro Biosystems 2474-TR or CD1-H5243.
In experiment [2] the target is T1, human TfR1. In words: biochemical. More on the design: His6-tagged TfR1 (a.a. 89-760) (ACRO Biosystems, CD1-H5243 and TFR-C524a); His6; purchased R&D Systems or Acro Biosystems 2474-TR or CD1-H5243.

T1 sequence (P02786 89-760): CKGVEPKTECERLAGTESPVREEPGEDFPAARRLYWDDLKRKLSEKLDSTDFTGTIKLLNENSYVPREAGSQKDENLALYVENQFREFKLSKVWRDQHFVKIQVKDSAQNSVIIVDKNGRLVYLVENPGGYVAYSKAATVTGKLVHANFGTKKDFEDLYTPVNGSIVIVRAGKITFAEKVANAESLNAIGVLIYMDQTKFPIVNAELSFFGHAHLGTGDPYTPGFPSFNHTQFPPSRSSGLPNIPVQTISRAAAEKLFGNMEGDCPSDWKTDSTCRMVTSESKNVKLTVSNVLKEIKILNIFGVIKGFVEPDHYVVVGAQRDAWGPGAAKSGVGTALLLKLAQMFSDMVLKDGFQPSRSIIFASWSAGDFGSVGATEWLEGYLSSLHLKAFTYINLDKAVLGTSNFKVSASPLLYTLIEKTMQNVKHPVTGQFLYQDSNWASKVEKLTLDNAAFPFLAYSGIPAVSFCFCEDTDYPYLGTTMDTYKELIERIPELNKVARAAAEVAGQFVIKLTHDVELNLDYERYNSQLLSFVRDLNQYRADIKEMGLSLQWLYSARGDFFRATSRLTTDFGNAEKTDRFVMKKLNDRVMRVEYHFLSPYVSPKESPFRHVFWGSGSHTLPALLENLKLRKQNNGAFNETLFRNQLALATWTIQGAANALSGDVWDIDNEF

For orientation: Kd means the equilibrium constant for the complex coming apart. Higher therefore signals lower affinity. On cynomolgus TfR1, `CC[C@H](C)[C@@H]1NC(=O)[C@@H]2CSCC(=O)N3CN(CN(C3)C(=O)CSC[C@@H](C(=O)N[C@@H](C)C(N)=O)NC(=O)[C@H](Cc3cccc4ccccc34)NC(=O)[C@H](CO)NC1=O)C(=O)CSC[C@H](NC(=O)[C@H](C)N)C(=O)N[C@@H](CO)C(=O)N1CCC[C@H]1C(=O)N[C@@H](CC(=O)O)C(=O)N[C@@H](C)C(=O)N[C@@H](Cc1c[nH]cn1)C(=O)N[C@@H](CC(C)C)C(=O)NCC(=O)N2` [BCY16029, A-(SEQ ID NO: 39)-A] came in with a Kd of 5480 nM.
`CC[C@H](C)[C@@H]1NC(=O)[C@@H]2CSCC(=O)N3CN(CN(C3)C(=O)CSC[C@@H](C(=O)N[C@@H](C)C(N)=O)NC(=O)[C@H](Cc3ccc(O)c(C(C)(C)C)c3)NC(=O)[C@H](CO)NC1=O)C(=O)CSC[C@H](NC(=O)[C@H](C)N)C(=O)N[C@@H](CO)C(=O)N1CCC[C@H]1C(=O)N[C@@H](CC(=O)O)C(=O)N[C@@H](C)C(=O)N[C@@H](Cc1c[nH]cn1)C(=O)N[C@@H](CC(C)C)C(=O)NCC(=O)N2` [BCY16079, A-(SEQ ID NO: 37)-A]: the Kd was determined as 5660 nM at cynomolgus TfR1 and 60 nM at human TfR1 [1].
On cynomolgus TfR1, `CC(C)C[C@@H]1NC(=O)[C@H](Cc2ccc(O)cc2)NC(=O)[C@H](C)NC(=O)[C@H](CC(=O)O)NC(=O)[C@@H]2CCCN2C(=O)[C@@H]2CCCN2C(=O)[C@@H](NC(=O)[C@H](C)N)CSCC(=O)N2CN3CN(C2)C(=O)CSC[C@@H](C(=O)N[C@@H](C)C(N)=O)NC(=O)[C@H](Cc2ccc(O)cc2)NC(=O)[C@H](CO)NC(=O)[C@H](C(C)(C)C)NC(=O)[C@H](CSCC3=O)NC(=O)CNC1=O` [BCY16964, A-(SEQ ID NO: 22)-A] returned a Kd of 514 nM. In other words, the sub-micromolar range.
For orientation: Ki means the dissociation constant of the complex between target and ligand, obtained from inhibition or displacement. Higher therefore signals lower affinity. On to `CC[C@H](C)[C@@H]1NC(=O)[C@@H]2CSCC(=O)N3CN(CN(C3)C(=O)CSC[C@H](NC(=O)[C@H](CC(N)=O)NC(=O)[C@H](Cc3c[nH]c4ccccc34)NC(=O)[C@@H](N)CC(N)=O)C(=O)N[C@@H](CO)C(=O)N3CCC[C@H]3C(=O)N[C@@H](CC(=O)O)C(=O)N[C@@H](C)C(=O)N[C@@H](Cc3c[nH]cn3)C(=O)N[C@@H](CC(C)C)C(=O)NCC(=O)N2)C(=O)CSC[C@@H](C(=O)N[C@@H](C)C(N)=O)NC(=O)[C@H](Cc2ccc(O)cc2)NC(=O)[C@H](CO)NC1=O` [BCY17109, NWN-(SEQ ID NO: 9)-A], for which the Kd at cynomolgus TfR1 is 281 nM and 535 nM. Also, the inhibition constant (Ki) on human TfR1 [2] (Geomean Ki (μM)) stood at 0.009 µM.
Turning to `CC[C@H](C)[C@@H]1NC(=O)[C@@H]2CSCC(=O)N3CN(CN(C3)C(=O)CSC[C@H](NC(=O)[C@@H](NC(=O)[C@H](CCC(=O)O)NC(=O)[C@@H](N)CC(N)=O)C(C)C)C(=O)N[C@@H](CO)C(=O)N3CCC[C@H]3C(=O)N[C@@H](CC(=O)O)C(=O)N[C@@H](C)C(=O)N[C@@H](Cc3c[nH]cn3)C(=O)N[C@@H](CC(C)C)C(=O)NCC(=O)N2)C(=O)CSC[C@@H](C(=O)N[C@@H](C)C(N)=O)NC(=O)[C@H](Cc2ccc(O)cc2)NC(=O)[C@H](CO)NC1=O` [BCY17112, NEV-(SEQ ID NO: 9)-A], binding on cynomolgus TfR1 was characterised by a dissociation constant (Kd) of 2600 nM.
Turning to `CC[C@H](C)[C@@H]1NC(=O)[C@@H]2CSCC(=O)N3CN(CN(C3)C(=O)CSC[C@@H](C(=O)N[C@@H](CCC(=O)O)C(=O)N3CCC[C@H]3C(=O)N[C@@H](Cc3c[nH]c4ccccc34)C(N)=O)NC(=O)[C@H](Cc3ccc(O)cc3)NC(=O)[C@H](CO)NC1=O)C(=O)CSC[C@H](NC(=O)[C@H](C)N)C(=O)N[C@@H](CO)C(=O)N1CCC[C@H]1C(=O)N[C@@H](CC(=O)O)C(=O)N[C@@H](C)C(=O)N[C@@H](Cc1c[nH]cn1)C(=O)N[C@@H](CC(C)C)C(=O)NCC(=O)N2` [BCY17114, A-(SEQ ID NO: 9)-EPW], the Kd on cynomolgus TfR1 was found to be 845 nM.
`CC[C@H](C)[C@@H]1NC(=O)[C@@H]2CSCC(=O)N3CN(CN(C3)C(=O)CSC[C@@H](C(=O)N3CCC[C@H]3C(=O)N[C@H](C(=O)N[C@H](C(=O)N[C@@H](Cc3c[nH]cn3)C(N)=O)C(C)C)[C@@H](C)CC)NC(=O)[C@H](Cc3ccc(O)cc3)NC(=O)[C@H](CO)NC1=O)C(=O)CSC[C@H](NC(=O)[C@H](C)N)C(=O)N[C@@H](CO)C(=O)N1CCC[C@H]1C(=O)N[C@@H](CC(=O)O)C(=O)N[C@@H](C)C(=O)N[C@@H](Cc1c[nH]cn1)C(=O)N[C@@H](CC(C)C)C(=O)NCC(=O)N2` [BCY17120, A-(SEQ ID NO: 9)-PIVH] displayed a Kd at cynomolgus TfR1 of 1260 nM. This Kd and that of the compound before are within 1.5-fold of each other.
Still for that read-out and setting: the result for `CC[C@H](C)[C@@H]1NC(=O)[C@@H]2CSCC(=O)N3CN(CN(C3)C(=O)CSC[C@H](NC(C)=O)C(=O)N[C@@H](C)C(=O)N3CCC[C@H]3C(=O)N[C@@H](CC(=O)O)C(=O)N[C@@H](C)C(=O)N[C@@H](Cc3c[nH]cn3)C(=O)N[C@@H](CC(C)C)C(=O)NCC(=O)N2)C(=O)CSC[C@@H](C(N)=O)NC(=O)[C@H](Cc2ccc(O)cc2)NC(=O)[C@H](CO)NC1=O` [BCY17986, Ac-(SEQ ID NO: 24)] reads 4660 nM.
`CC[C@H](C)[C@@H]1NC(=O)[C@@H]2CSCC(=O)N3CN(CN(C3)C(=O)CSC[C@H](NC(C)=O)C(=O)N[C@@H](CO)C(=O)N3CC[C@H]3C(=O)N[C@@H](CC(=O)O)C(=O)N[C@@H](C)C(=O)N[C@@H](Cc3c[nH]cn3)C(=O)N[C@@H](CC(C)C)C(=O)NCC(=O)N2)C(=O)CSC[C@@H](C(N)=O)NC(=O)[C@H](Cc2ccc(O)cc2)NC(=O)[C@H](CO)NC1=O` [BCY17988, Ac-(SEQ ID NO: 44)]: the Ki on human TfR1 [2] (Geomean Ki (μM)) was found to be 0.272 µM; at human TfR1 [2] (Human TfR1 Ki (nM)), 0.213 µM. On human TfR1 [1], this compound yielded a Kd of 649 nM.
On to `CC[C@H](C)[C@@H]1NC(=O)[C@@H]2CSCC(=O)N3CN(CN(C3)C(=O)CSC[C@H](NC(=O)[C@H](CC(N)=O)NC(=O)[C@H](Cc3c[nH]c4ccccc34)NC(=O)[C@H](CC(N)=O)NC(C)=O)C(=O)N[C@@H](CO)C(=O)N3CCC[C@H]3C(=O)N[C@@H](CC(=O)O)C(=O)N[C@@H](C)C(=O)N[C@@H](Cc3c[nH]cn3)C(=O)N[C@@H](CC(C)C)C(=O)NCC(=O)N2)C(=O)CSC[C@@H](C(N)=O)NC(=O)[C@H](Cc2ccc(O)cc2)NC(=O)[C@H](CO)NC1=O` [BCY17992, Ac-NWN-(SEQ ID NO: 9)], for which binding at cynomolgus TfR1 was put at a Kd of 535 nM.
In the case of `CC[C@H](C)[C@@H]1NC(=O)[C@@H]2CSCC(=O)N3CN(CN(C3)C(=O)CSC[C@@H](C(=O)N[C@@H](CCC(=O)O)C(=O)N3CCC[C@H]3C(=O)N[C@@H](Cc3c[nH]c4ccccc34)C(N)=O)NC(=O)[C@H](Cc3ccc(O)cc3)NC(=O)[C@H](CO)NC1=O)C(=O)CSC[C@H](NC(C)=O)C(=O)N[C@@H](CO)C(=O)N1CCC[C@H]1C(=O)N[C@@H](CC(=O)O)C(=O)N[C@@H](C)C(=O)N[C@@H](Cc1c[nH]cn1)C(=O)N[C@@H](CC(C)C)C(=O)NCC(=O)N2` [BCY17994, Ac-(SEQ ID NO: 9)-EPW], the Kd on cynomolgus TfR1 came to 688 nM. In addition, the Ki on human TfR1 [2] (Geomean Ki (μM)) and at human TfR1 [2] (Human TfR1 Ki (nM)) was 0.008 µM throughout.
The compound `CC[C@H](C)[C@@H]1NC(=O)[C@@H]2CSCC(=O)N3CN(CN(C3)C(=O)CSC[C@H](NC(=O)[C@H](CC(N)=O)NC(=O)[C@H](Cc3cccc4ccccc34)NC(=O)[C@H](CC(N)=O)NC(C)=O)C(=O)N[C@@H](CO)C(=O)N3CCC[C@H]3C(=O)N[C@@H](CC(=O)O)C(=O)N[C@@H](C)C(=O)N[C@@H](Cc3c[nH]cn3)C(=O)N[C@@H](CC(C)C)C(=O)NCC(=O)N2)C(=O)CSC[C@@H](C(N)=O)NC(=O)[C@H](Cc2ccc(O)cc2)NC(=O)[C@H](CO)NC1=O` [BCY18034, Ac-N[1Nal]N-(SEQ ID NO: 9)] displayed a Kd on cynomolgus TfR1 of 2080 nM. On human TfR1 [2] (Human TfR1 Ki (nM)), this compound registered a Ki of 0.01 µM.
Compound `CC[C@H](C)[C@@H]1NC(=O)[C@@H]2CSCC(=O)N3CN(CN(C3)C(=O)CSC[C@H](NC(=O)[C@H](CC(N)=O)NC(=O)[C@@H](Cc3c[nH]c4ccccc34)NC(=O)[C@H](CC(N)=O)NC(C)=O)C(=O)N[C@@H](CO)C(=O)N3CCC[C@H]3C(=O)N[C@@H](CC(=O)O)C(=O)N[C@@H](C)C(=O)N[C@@H](Cc3c[nH]cn3)C(=O)N[C@@H](CC(C)C)C(=O)NCC(=O)N2)C(=O)CSC[C@@H](C(N)=O)NC(=O)[C@H](Cc2ccc(O)cc2)NC(=O)[C@H](CO)NC1=O` [BCY18035, Ac-N[dW]N-(SEQ ID NO: 9)] returned a Kd at cynomolgus TfR1 of 10300 nM. The same compound gave a Ki at human TfR1 [2] (Geomean Ki (μM)) of 0.02 µM.
In turn, `CC[C@H](C)[C@@H]1NC(=O)[C@@H]2CSCC(=O)N3CN(CN(C3)C(=O)CSC[C@@H](C(=O)N[C@@H](CCC(=O)O)C(=O)N3CC[C@H]3C(=O)N[C@@H](Cc3c[nH]c4ccccc34)C(N)=O)NC(=O)[C@H](Cc3ccc(O)cc3)NC(=O)[C@H](CO)NC1=O)C(=O)CSC[C@H](NC(C)=O)C(=O)N[C@@H](CO)C(=O)N1CCC[C@H]1C(=O)N[C@@H](CC(=O)O)C(=O)N[C@@H](C)C(=O)N[C@@H](Cc1c[nH]cn1)C(=O)N[C@@H](CC(C)C)C(=O)NCC(=O)N2` [BCY18037, Ac-(SEQ ID NO: 9)-E[Aze]W] gave a Kd on cynomolgus TfR1 of 1080 nM.
For `CC[C@H](C)[C@@H]1NC(=O)[C@@H]2CSCC(=O)N3CN(CN(C3)C(=O)CSC[C@@H](C(=O)N[C@@H](CCC(=O)O)C(=O)N3CCC[C@@H]3C(=O)N[C@@H](Cc3c[nH]c4ccccc34)C(N)=O)NC(=O)[C@H](Cc3ccc(O)cc3)NC(=O)[C@H](CO)NC1=O)C(=O)CSC[C@H](NC(C)=O)C(=O)N[C@@H](CO)C(=O)N1CCC[C@H]1C(=O)N[C@@H](CC(=O)O)C(=O)N[C@@H](C)C(=O)N[C@@H](Cc1c[nH]cn1)C(=O)N[C@@H](CC(C)C)C(=O)NCC(=O)N2` [BCY18038, Ac-(SEQ ID NO: 9)-E[dP]W], binding at cynomolgus TfR1 was put at a Kd of 1650 nM. Compared with the last compound, the Kd is about 1.5-fold higher.
